Source: ChEMBL document CHEMBL4266063, “Synthesis of Artemisinin-Estrogen Hybrids Highly Active against HCMV, P. falciparum, and Cervical and Breast Cancer” (ACS Med Chem Lett, 2018)
pEC50: −log10 of the molar value.

Columns and labels:
HFF = assay: Cytotoxicity against HFF measured over 7 days by microscopic analysis; type: cell-based; details: human, 168 h
MDA-MB-361 = assay: Antiproliferative activity against human MDA-MB-361 cells after 72 hrs by MTT assay; type: functional, cell-based; details: MDA-MB-361, 72 h
Plasmodium falciparum [1] = assay: Antimalarial activity against synchronized ring stage of Plasmodium falciparum 3D7 infected in human erythrocytes after 72 hrs by SYBR Green1 dye based fluorescence assay; type: functional, organism-based; details: 3D7, 72 h
T47D = assay: Antiproliferative activity against human T47D cells after 72 hrs by MTT assay; type: functional, cell-based
MCF7 = assay: Antiproliferative activity against human MCF7 cells after 72 hrs by MTT assay; type: functional, cell-based; details: MCF7, 72 h
C-33-A = assay: Antiproliferative activity against human C33A cells after 72 hrs by MTT assay; type: functional, cell-based
SiHa = assay: Antiproliferative activity against human SiHa cells after 72 hrs by MTT assay; type: functional, cell-based
MDA-MB-231 = assay: Antiproliferative activity against human MDA-MB-231 cells after 72 hrs by MTT assay; type: functional, cell-based; details: MDA-MB-231, 72 h
HeLa = assay: Antiproliferative activity against human HeLa cells after 72 hrs by MTT assay; type: functional, cell-based
Human betaherpesvirus 5 = assay: Antiviral activity against GFP-fused Human cytomegalovirus AD169 infected in HFF measured 7 days post infection; type: functional, organism-based; details: Human betaherpesvirus 5, AD169, HFF, 168 h
Plasmodium falciparum [2] = assay: Potency index, ratio of chloroquine EC50 to test compound EC50 for synchronized ring stage of Plasmodium falciparum 3D7 infected in human erythrocytes; type: functional

| SMILES | Activity (HFF) | pEC50 (MDA-MB-361) | pEC50 (Plasmodium falciparum [1]) | pEC50 (T47D) | pEC50 (MCF7) | pEC50 (C-33-A) | pEC50 (SiHa) | pEC50 (MDA-MB-231) | pEC50 (HeLa) | pEC50 (Human betaherpesvirus 5) | Ratio EC50 (Plasmodium falciparum [2]) |
| --- | --- | --- | --- | --- | --- | --- | --- | --- | --- | --- | --- |
| C[C@H]1[C@H](OC(=O)CCC(=O)OC[C@H]2C[C@H]3[C@@H]4CCc5cc(OCc6ccccc6)ccc5[C@H]4CC[C@]3(C)[C@H]2O)O[C@@H]2O[C@@]3(C)CC[C@H]4[C@H](C)CC[C@@H]1[C@@]24OO3 | Non-Toxic | 6.70 | 7.47 | 6.66 | 6.12 | 5.76 | 4.55 | 5.64 | < 4.52 | 6.42 | – |
| COc1ccc2c(c1)CC[C@@H]1[C@@H]2CC[C@]2(C)[C@@H](O)[C@H](NC(=O)CCC(=O)O[C@@H]3O[C@@H]4O[C@@]5(C)CC[C@H]6[C@H](C)CC[C@@H]([C@H]3C)[C@@]46OO5)C[C@@H]12 | Non-Toxic | 6.19 | 8.42 | 6.13 | 5.33 | 6.06 | 4.59 | 5.16 | 4.94 | 5.61 | 2 |
| C[C@H]1[C@@H](CC(=O)OC[C@H]2C[C@H]3[C@@H]4CCc5cc(OCc6ccccc6)ccc5[C@H]4CC[C@]3(C)[C@H]2O)O[C@@H]2O[C@@]3(C)CC[C@H]4[C@H](C)CC[C@@H]1[C@@]24OO3 | Non-Toxic | 6.74 | 6.89 | 6.03 | 6.35 | 6.82 | 4.79 | 6.07 | 4.85 | 6.66 | – |
| C[C@]12CC[C@@H]3c4ccc(OCc5ccccc5)cc4CC[C@H]3[C@@H]1C[C@H](CO)[C@@H]2O | – | 5.56 | 4.76 | 5.08 | 4.89 | 4.91 | 5.11 | 4.89 | 4.89 | – | – |
| COc1ccc2c(c1)CC[C@@H]1[C@@H]2CC[C@]2(C)[C@@H](O)[C@H](NC(=O)O[C@H]3O[C@@H]4O[C@@]5(C)CC[C@H]6[C@H](C)CC[C@@H]([C@H]3C)[C@@]46OO5)C[C@@H]12 | Non-Toxic | 6.16 | 8.11 | 5.93 | 5.99 | 6.24 | 5.21 | 5.73 | 5.78 | 6.64 | – |
| COc1ccc2c(c1)CC[C@@H]1[C@@H]2CC[C@]2(C)[C@@H](O)[C@H](N)C[C@@H]12 | – | 5.34 | – | 5.25 | 4.92 | 4.88 | 4.76 | 4.80 | 4.88 | – | – |
| C[C@H]1[C@H](OC(=O)CCC(=O)O)O[C@@H]2O[C@@]3(C)CC[C@H]4[C@H](C)CC[C@@H]1[C@@]24OO3 [ARTESUNATE] | – | 5.64 | 8.05 | 5.65 | 5.38 | 5.74 | < 4.52 | 5.00 | 4.92 | – | – |
| COc1ccc2c(c1)CC[C@@H]1[C@@H]2CC[C@]2(C)C(=O)[C@H](N=[N+]=[N-])C[C@@H]12 | – | < 4.52 | < 4.30 | < 4.52 | < 4.52 | < 4.52 | < 4.52 | < 4.52 | < 4.52 | – | – |
| C[C@@H]1CC[C@H]2[C@@H](C)C(=O)O[C@@H]3O[C@@]4(C)CC[C@@H]1[C@]32OO4 [ARTEMISININ] | – | – | – | – | – | – | – | – | – | < 5.00 | – |
| C[C@H]1[C@@H](O)O[C@@H]2O[C@@]3(C)CC[C@H]4[C@H](C)CC[C@@H]1[C@@]24OO3 [ARTENIMOL] | – | 5.77 | – | 5.34 | 5.08 | 5.77 | 4.53 | 4.97 | 4.98 | < 5.00 | – |
| COc1ccc2c(c1)CC[C@@H]1[C@@H]2CC[C@]2(C)C(=O)[C@H](n3cc(CO[C@H]4O[C@@H]5O[C@@]6(C)CC[C@H]7[C@H](C)CC[C@@H]([C@H]4C)[C@@]57OO6)nn3)C[C@@H]12 | Non-Toxic | 6.77 | 7.88 | 6.80 | 5.75 | 5.69 | 4.54 | 5.75 | 4.81 | 6.62 | – |
